From US20040180835A1, “Use of the protein uk114 or of fragments thereof for the treatment and prevention of the endotoxic shock” (priority 2001, published 2004)
Marks after values point to notes of the source that are not given here. No end group written: not given here.

Test system: LPS-induced endotoxic shock
Experiment: LPS-induced endotoxic shock in mice (death rate after LPS injection)
Format: in vivo, Balb/c mice
Method: The pharmacological activity of UK 114 and of the peptides of the invention has been studied on the murine model of LPS-induced shock, as reported in the following Example.
Balb/c mice 6-8 weeks old were treated i.p. with 30 mcg of UK114 in 100 μl PBS (group B) or with 4 mcg of peptide 76-90 (group C) 24 hours and one hour before the administration of 500 mcg of LPS. A control group of mice (group A) was tretated with 100 μl PBS according to the same protocol used for groups C and B.
A further group was treated only with UK114 one hour after the administration of LPS (group D). This experimental approach more closely resembles the clinical practice where it is difficult to intervene prophylactically.
The death rate of the animals in each group was recorded every 12 hours up to the third day from the LPS injection.

VVKATVLLADINDFS [pep. 76-90]
Death-rate (at 72 h) (prophylactic i.p. treatment 24 hours and one hour before 500 mcg LPS, UK114 30 mcg, peptide 76-90 4 mcg, 50 mice per group, PBS control 40/50 (80%)): 25/50(50%)*** | Protection from the lethal effects of LPS (prophylactic treatment, 72 hours post LPS, vs PBS control group): clearly protected from the lethal effects of LPS
